Calls of active or inactive are those of the source. The rule behind the calls is not given here.
System: rodent carcinogenicity bioassays, tumor incidence
Assay: CCRIS carcinogenicity studies
Description: The CCRIS database contains chemical records with carcinogenicity, mutagenicity, tumor promotion, and tumor inhibition test results. It was developed by the National Cancer Institute (NCI). Data are derived from studies cited in primary journals, current awareness tools, NCI reports, and other sources. Test results have been reviewed by experts in carcinogenesis and mutagenesis.
CCRIS provides historical information from the years 1985 - 2011. It is no longer updated.
This is an archive assay for CCRIS carcinogenicity studies.

**Q.** For `COc1cc2c(c3oc(=O)c4c(c13)CC[C@@H]4O)[C@@H]1C=CO[C@@H]1O2`, which carcinogen call (Species: FISH, Strain/Sex: SHASTA RAINBOW TROUT/MALE, FEMALE, Route: IMMERSION, Dose: 0, 0.01, 0.025, 0.05, 0.1, 0.25, 0.5 PPM SOLUTION IN WATER FOR 1 HR EXPOSURE OF EMBRYOS (STUDY DURATION: 13 MO), Dose: 0, 0.01, 0.025, 0.05, 0.1, 0.25, 0.5 PPM SOLUTION IN WATER FOR 1 HR EXPOSURE OF EMBRYOS (STUDY DURATION: 13 MO), Tumor Site: Type of Lesion: LIVER: TUMORS) is on record?
**A.** active; positive

**Q.** And the carcinogen call (Species: FISH, Strain/Sex: SHASTA RAINBOW TROUT/MALE, FEMALE, Route: ORAL, Dose: 0, 4, 8, 16, 32, 64 PPB IN DIET FOR 2 WK FOLLOWED BY CONTROL DIET FOR THE DURATION OF STUDY (STUDY DURATION: 9 MO), Dose: 0, 4, 8, 16, 32, 64 PPB IN DIET FOR 2 WK FOLLOWED BY CONTROL DIET FOR THE DURATION OF STUDY (STUDY DURATION: 9 MO), Tumor Site: Type of Lesion: LIVER: TUMOR)?
**A.** active; positive

**Q.** What about the carcinogen call (Species: RAT, Strain/Sex: F344/MALE, Route: ORAL, Dose: 50, 200 PPB IN DIET 2/WK FOR 12 MO, Tumor Site: Type of Lesion: LIVER: HEPATOCELLULAR CARCINOMA) of the same molecule?
**A.** active; positive

**Q.** What about the carcinogen call (Species: TROUT, Strain/Sex: MT. SHASTA RAINBOW, Route: ORAL, Dose: 29 PPB IN DIET FOR 12 MO, Tumor Site: Type of Lesion: LIVER: HEPATOCELLULAR CARCINOMA) of the same molecule?
**A.** active; positive

**Q.** Which carcinogen call (Species: MOUSE, Strain/Sex: ALBINO/FEMALE, Route: DERMAL, Dose: 70 UG IN 0.025 ML ACETONE 2/WK FOR 20 WK, Tumor Site: Type of Lesion: INTEGUMENTARY SYSTEM (SKIN): CARCINOMA) does the source give for `Cc1c2ccccc2cc2c1ccc1ccccc12` here?
**A.** active; positive

**Q.** And the carcinogen call (Species: MOUSE, Strain/Sex: ALBINO/FEMALE, Route: SUBCUTANEOUS, Dose: 0.1 ML OF 1 MG IN TRICAPRYLIN ONCE, Tumor Site: Type of Lesion: INJECTION SITE: SARCOMA)?
**A.** active; positive

**Q.** And the carcinogen call (Species: MOUSE, Strain/Sex: ALBINO/FEMALE, Route: SUBCUTANEOUS, Dose: 0.25, 1.0 MG IN 0.1 ML TRICAPRYLIN ONCE, Tumor Site: Type of Lesion: INJECTION SITE: SARCOMA)?
**A.** active; positive

**Q.** What about the carcinogen call (Species: MOUSE, Strain/Sex: C57BL/MALE,FEMALE, Route: SUBCUTANEOUS, Dose: 1 MG IN 0.1 ML ARACHIS OIL 1/WK FOR 10 WK, Tumor Site: Type of Lesion: INJECTION SITE) of the same molecule?
**A.** active; positive

**Q.** And the carcinogen call (Species: RAT, Strain/Sex: ALBINO/MALE, Route: SUBCUTANEOUS, Dose: 2.0 MG IN 0.25 ML TRICAPRYLIN ONCE, Tumor Site: Type of Lesion: INJECTION SITE: SARCOMA)?
**A.** active; positive

**Q.** And the carcinogen call (Species: RAT, Strain/Sex: F344/MALE,FEMALE, Route: SUBCUTANEOUS, Dose: 2 MG IN 0.2 ML PARAFFIN SOLN (TOTAL DOSE 4 MG/RAT), Tumor Site: Type of Lesion: INJECTION SITE: FIBROSARCOMA)?
**A.** active; positive

**Q.** And the carcinogen call (Species: RAT, Strain/Sex: HOLTZMAN/MALE, Route: SUBCUTANEOUS, Dose: 0.25 ML OF 2 MG IN TRICAPRYLIN ONCE, Tumor Site: Type of Lesion: INJECTION SITE: SARCOMA)?
**A.** active; positive

**Q.** What about the carcinogen call (Species: RAT, Strain/Sex: LONG-EVANS/MALE, Route: INTRAMUSCULAR, Dose: 2.5 MG IN 0.5 ML SESAME OIL ONCE, Tumor Site: Type of Lesion: INJECTION SITE: SARCOMA) of the same molecule?
**A.** active; positive

**Q.** How did the carcinogen call (Species: Mouse, Strain/Sex: B6C3F1/Female (50/Group), Route: Dermal, Dose: 0, 10, 20, 40 mg/kg in anhydrous ethanol 5 d/wk for 2 yr, Dose: 0, 10, 20, 40 mg/kg in anhydrous ethanol 5 d/wk for 2 yr) turn out when `CC(C)N=C=NC(C)C` was run?
**A.** inactive; negative

**Q.** And the carcinogen call (Species: Mouse, Strain/Sex: B6C3F1/Male (50/Group), Route: Dermal, Dose: 0, 10, 20, 40 mg/kg in anhydrous ethanol 5 d/wk for 2 yr, Dose: 0, 10, 20, 40 mg/kg in anhydrous ethanol 5 d/wk for 2 yr)?
**A.** inactive; negative

**Q.** And the carcinogen call (Species: Rat, Strain/Sex: F344/N/Female (50/Group), Route: Dermal, Dose: 0, 10, 20, 40 mg/kg in anhydrous ethanol 5 d/wk for 2 yr, Dose: 0, 10, 20, 40 mg/kg in anhydrous ethanol 5 d/wk for 2 yr)?
**A.** inactive; negative

**Q.** And the carcinogen call (Species: Rat, Strain/Sex: F344/N/Male (50/Group), Route: Dermal, Dose: 0, 10, 20, 40 mg/kg in anhydrous ethanol 5 d/wk for 2 yr, Dose: 0, 10, 20, 40 mg/kg in anhydrous ethanol 5 d/wk for 2 yr)?
**A.** inactive; negative

**Q.** For `ClCC(Cl)Cl`, which carcinogen call (Species: MOUSE, Strain/Sex: B6C3F1/FEMALE, Route: GAVAGE, Dose: 0, 195, 390 MG/KG/D, TWA, Dose: 0, 195, 390 MG/KG/D, TWA, Tumor Site: Type of Lesion: LIVER: HEPATOCELLULAR CARCINOMA) is on record?
**A.** active; positive

**Q.** And the carcinogen call (Species: MOUSE, Strain/Sex: B6C3F1/MALE, Route: GAVAGE, Dose: 0, 195, 390 MG/KG/D, TWA, Dose: 0, 195, 390 MG/KG/D, TWA, Tumor Site: Type of Lesion: LIVER: HEPATOCELLULAR CARCINOMA)?
**A.** active; positive

**Q.** What about the carcinogen call (Species: RAT, Strain/Sex: OSBORNE-MENDEL/FEMALE, Route: GAVAGE, Dose: 0, 46, 92 MG/KG/D, TWA, Dose: 0, 46, 92 MG/KG/D, TWA) of the same molecule?
**A.** inactive; negative

**Q.** What about the carcinogen call (Species: RAT, Strain/Sex: OSBORNE-MENDEL/MALE, Route: GAVAGE, Dose: 0, 46, 92 MG/KG/D, TWA, Dose: 0, 46, 92 MG/KG/D, TWA) of the same molecule?
**A.** inactive; negative

**Q.** Which results are given for `Cc1ccc(N)cc1N`?
**A.** carcinogen call (Species: MOUSE, Strain/Sex: B6C3F1/FEMALE, Route: ORAL, Dose: 0, 100, 200 PPM IN DIET FOR 101 WK, Dose: 0, 100, 200 PPM IN DIET FOR 101 WK, Tumor Site: Type of Lesion: HEMATOPOIETIC SYSTEM (LEUKEMIA), LYMPHATIC SYSTEM: LYMPHOMA, LIVER: HEPATOCELLULAR CARCINOMA, Tumor Site: Type of Lesion: HEMATOPOIETIC SYSTEM (LEUKEMIA), LYMPHATIC SYSTEM: LYMPHOMA, LIVER: HEPATOCELLULAR CARCINOMA): active; positive; carcinogen call (Species: MOUSE, Strain/Sex: B6C3F1/MALE, Route: ORAL, Dose: 0, 100, 200 PPM IN DIET FOR 101 WK, Dose: 0, 100, 200 PPM IN DIET FOR 101 WK): inactive; negative; carcinogen call (Species: RAT, Strain/Sex: F344/FEMALE, Route: ORAL, Dose: 0, 79, 171 PPM TWA, IN DIET FOR 84-103 WK, Dose: 0, 79, 171 PPM TWA, IN DIET FOR 84-103 WK, Tumor Site: Type of Lesion: INTEGUMENTARY SYSTEM (SUBCUTANEOUS TISSUE): FIBROMA, FIBROSARCOMA, LIVER: HEPATOCELLULAR CARCINOMA OR NEOPLASTIC NODULE;, Tumor Site: Type of Lesion: INTEGUMENTARY SYSTEM (SUBCUTANEOUS TISSUE): FIBROMA, FIBROSARCOMA, LIVER: HEPATOCELLULAR CARCINOMA OR NEOPLASTIC NODULE): active; positive; carcinogen call (Species: RAT, Strain/Sex: F344/MALE, Route: ORAL, Dose: 0, 79, 176 PPM TWA, IN DIET FOR 79-103 WK, Dose: 0, 79, 176 PPM TWA, IN DIET FOR 79-103 WK, Tumor Site: Type of Lesion: INTEGUMENTARY SYSTEM (SUBCUTANEOUS TISSUE): SQUAMOUS CELL CARCINOMA, FIBROMA, LIPOMA, LIVER: HEPATOCELLULAR CARCINOMA OR): active; positive

**Q.** Which results are given for `O=C(O)CCCOc1ccc(Cl)cc1Cl`?
**A.** carcinogen call (Species: MOUSE, Strain/Sex: ICR/FEMALE, Route: ORAL, Dose: 0, 25, 250, 750 PPM IN DIET FOR 78 WK (STUDY DURATION: 78 WK), Dose: 0, 25, 250, 750 PPM IN DIET FOR 78 WK (STUDY DURATION: 78 WK)): inactive; negative; carcinogen call (Species: MOUSE, Strain/Sex: ICR/MALE, Route: ORAL, Dose: 0, 25, 250, 750 PPM IN DIET FOR 78 WK (STUDY DURATION: 78 WK), Dose: 0, 25, 250, 750 PPM IN DIET FOR 78 WK (STUDY DURATION: 78 WK)): inactive; negative; carcinogen call (Species: RAT, Strain/Sex: SPRAGUE-DAWLEY/FEMALE, Route: ORAL, Dose: 0, 60, 600, 1800 PPM IN DIET FOR 104 WK (STUDY DURATION: 104 WK), Dose: 0, 60, 600, 1800 PPM IN DIET FOR 104 WK (STUDY DURATION: 104 WK)): inactive; negative; carcinogen call (Species: RAT, Strain/Sex: SPRAGUE-DAWLEY/MALE, Route: ORAL, Dose: 0, 60, 600, 1800 PPM IN DIET FOR 104 WK (STUDY DURATION: 104 WK), Dose: 0, 60, 600, 1800 PPM IN DIET FOR 104 WK (STUDY DURATION: 104 WK)): inactive; negative

**Q.** `CCCI` was tested. Which carcinogen call (Species: MOUSE, Route: INTRAPERITONEAL, Tumor Site: Type of Lesion: LUNG) did it give?
**A.** active; positive

— PubChem BioAssay AID1259411 (Chemical Carcinogenesis Research Information System (CCRIS), 2018)
